According to ChEMBL document CHEMBL4321833, “Sugar Kick Prevents Memory Impairment” (J Med Chem, 2019):

Experiments:
Protein O-GlcNAcase = biological target: T1, Protein O-GlcNAcase (Homo sapiens, UniProt O60502); assay: Inhibition of human O-GlcNAcase
T1 sequence (O60502 whole entry): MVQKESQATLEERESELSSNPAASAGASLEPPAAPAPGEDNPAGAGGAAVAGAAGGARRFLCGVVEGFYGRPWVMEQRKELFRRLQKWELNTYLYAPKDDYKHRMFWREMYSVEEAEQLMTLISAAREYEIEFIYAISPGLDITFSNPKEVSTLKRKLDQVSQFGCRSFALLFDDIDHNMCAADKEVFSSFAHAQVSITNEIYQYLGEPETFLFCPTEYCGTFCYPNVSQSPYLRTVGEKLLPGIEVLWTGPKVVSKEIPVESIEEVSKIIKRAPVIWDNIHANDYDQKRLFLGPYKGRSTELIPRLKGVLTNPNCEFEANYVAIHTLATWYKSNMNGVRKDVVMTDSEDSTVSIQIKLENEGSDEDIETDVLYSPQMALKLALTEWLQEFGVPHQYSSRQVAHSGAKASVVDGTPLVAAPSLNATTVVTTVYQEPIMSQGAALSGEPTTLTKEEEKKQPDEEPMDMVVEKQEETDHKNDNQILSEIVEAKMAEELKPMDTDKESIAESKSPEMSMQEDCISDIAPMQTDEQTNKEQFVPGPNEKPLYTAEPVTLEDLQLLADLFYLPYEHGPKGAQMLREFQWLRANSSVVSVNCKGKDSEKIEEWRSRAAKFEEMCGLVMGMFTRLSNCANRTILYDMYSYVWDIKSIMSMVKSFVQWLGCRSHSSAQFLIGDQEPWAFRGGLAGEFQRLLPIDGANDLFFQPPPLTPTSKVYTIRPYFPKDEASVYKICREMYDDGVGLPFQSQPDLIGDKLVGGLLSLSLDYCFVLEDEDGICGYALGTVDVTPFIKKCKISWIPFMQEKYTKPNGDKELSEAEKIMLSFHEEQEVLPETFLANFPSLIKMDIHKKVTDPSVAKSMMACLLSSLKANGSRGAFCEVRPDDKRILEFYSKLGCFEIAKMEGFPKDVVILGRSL

[1] = Apparent permeability of the compound; format: ADME; conditions: not told

## CCNC1=N[C@@H]2[C@@H](O)[C@H](O)[C@@H](C(F)F)O[C@@H]2S1
Protein O-GlcNAcase
  IC50: 7.9 nM
[1]
  Papp: 6.4 ×10⁻⁶ cm/s
